# Experimental data as given in ChEMBL document CHEMBL2046314, “Chlorine atom substitution influences radical scavenging activity of 6-chromanol” (Bioorg Med Chem, 2012).
# What was measured:
# [1] = Dissociation constant, pKa of the compound by UV-visible absorption spectroscopy; assay type: physicochemical
# [2] = Antioxidant activity assessed as second order rate constant for galvinoxyl radical scavenging activity in acetonitrile solution by UV-visible absorption spectroscopy; assay type: functional
# [3] = Hydroxyl radical scavenging activity assessed as reduction of DMPO-OH adduct formation using Fenton reaction by ESR spectroscopy; assay type: functional
SMILES,pKa [1],Activity [2],Activity [3]
CC1(C)CCc2c(Cl)c(O)c(Cl)c(Cl)c2O1,7.1,54 M⁻¹ s⁻¹,Dose-dependent effect
CC1(C)CCc2cc(O)cc(Cl)c2O1,9.8,21 M⁻¹ s⁻¹,Dose-dependent effect
CC1(C)CCc2c(cc(Cl)c(O)c2Cl)O1,7.7,67 M⁻¹ s⁻¹,Dose-dependent effect
CC1(C)CCc2cc(O)ccc2O1,10.3,98 M⁻¹ s⁻¹,Dose-dependent effect
CC1(C)CCc2c(ccc(O)c2Cl)O1,8.6,37 M⁻¹ s⁻¹,Dose-dependent effect
CC1(C)CCc2cc(O)c(Cl)cc2O1,9.1,42 M⁻¹ s⁻¹,Dose-dependent effect
